Measured values: patent publication US10206398B2, “Five-membered C-N-attached aryl sulphide and aryl sulphoxide derivatives as pesticides” (BAYER CROPSCIENCE AKTIENGESELLSCHAFT, priority 2014, dated 2019)
Where two headings read alike, the source gives them in different places.

Columns and labels:
[1] = log P determination by HPLC on reversed-phase columns (C 18), analogous to OECD Guideline 117; type: physicochemical; conditions: for logP[a]: method [a]; for logP[b]: method [b]; for chromatographic logP: reversed-phase HPLC column (C 18)
Outline: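 Reversed-phase C18 HPLC per OECD 117, two conditions: [a] pH 2.7, 0.1% formic acid water/acetonitrile, log P(HCOOH); [b] pH 7.8, 0.001 M ammonium hydrogencarbonate/acetonitrile, log P(neutral). Both use a 10–95% acetonitrile gradient; values are interpolated from retention times against C3–C16 unbranched alkan-2-ones.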

Boophilus microplus = Boophilus microplus - injection test; type: in vivo; conditions: 20 μg/animal, injection into engorged adult female cattle ticks, assessed after 7 days
Method: 1. Boophilus microplus—Injection Test
Solvent: dimethyl sulphoxide
To produce a suitable preparation of active compound, 10 mg of active compound are mixed with 0.5 ml of solvent and the concentrate is diluted with solvent to the desired concentration.
1 μl of the active compound solution is injected into the abdomen of 5 engorged adult female cattle ticks (Boophilus microplus). The animals are transferred into dishes and kept in a climate-controlled room.
Efficacy is assessed after 7 days by laying of fertile eggs. Eggs which are not visibly fertile are stored in a climate-controlled cabinet until the larvae hatch after about 42 days. An efficacy of 100% means that none of the ticks has laid any fertile eggs; 0% means that all the eggs are fertile.

Meloidogyne incognita = Meloidogyne incognita - test; type: in vivo; conditions: 20 ppm, lettuce, after 14 days
Method: 2. Meloidogyne incognita—Test Solvent: 125.0 parts by weight of acetone To produce a suitable preparation of active compound, 1 part by weight of active compound is mixed with the stated amount of solvent and the concentrate is diluted with water to the desired concentration. Vessels are filled with sand, active compound solution, an egg/larvae suspension of the southern root-knot nematode (Meloidogyne incognita) and lettuce seeds. The lettuce seeds germinate and the plants develop. The galls develop on the roots. After 14 days, the nematicidal efficacy in % is determined by the formation of galls. 100% means that no galls were found; 0% means that the number of galls on the treated plants corresponds to the untreated control.

Phaedon cochleariae = Phaedon cochleariae - spray test; type: in vivo; conditions: 500 g/ha, Chinese cabbage leaf discs, after 7 days
Method: 4. Phaedon cochleariae—Spray Test
Solvent: 78.0 parts by weight of acetone
• 1.5 parts by weight of dimethylformamide Emulsifier: alkylaryl polyglycol ether
(§1) To produce a suitable preparation of active compound, 1 part by weight of active compound is dissolved using the stated parts by weight of solvent and made up with water containing an emulsifier concentration of 1000 ppm until the desired concentration is attained. To produce further test concentrations, the preparation is diluted with emulsifier-containing water.
After 7 days, the efficacy in % is determined. 100% means that all the beetle larvae have been killed; 0% means that no beetle larvae have been killed.

Tetranychus urticae [2] = experiment: Tetranychus urticae - spray test, OP-resistant (bean leaf discs, 6 days); type: in vivo; conditions: 500 g/ha, after 6 days
Outline: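 Bean leaf discs carrying all stages of OP-resistant Tetranychus urticae were sprayed with compound formulated in acetone/DMF and diluted in water with 1000 ppm emulsifier. Mortality was scored after 6 days as % efficacy, where 100% means all mites were killed.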

Tetranychus urticae [3] = experiment: Tetranychus urticae - spray test, OP-resistant (bean plants, 7 days); type: in vivo; conditions: 20 ppm, after 7 days
Method: 6. Tetranychus urticae—Spray Test, OP-Resistant
Solvent: 7 parts by weight of dimethylformamide
Emulsifier: alkylaryl polyglycol ether
as §1, with “water. If the addition of ammonium salts or/and penetrants is required, these are each added in a concentration of 1000 ppm to the formulation solution.” for “water.”
Bean plants (Phaseolus vulgaris) heavily infested by all stages of the greenhouse red spider mite (Tetranychus urticae) are treated by spraying with the active compound preparation of the desired concentration.
After 7 days, the efficacy in % is determined. 100% means that all the spider mites have been killed; 0% means that no spider mites have been killed.

Myzus persicae = Myzus persicae - spray test; type: in vivo; conditions: 500 g/ha, Chinese cabbage leaf discs, after 6 days
Method: 3. Myzus persicae—Spray Test Solvent: 78 parts by weight of acetone • • 1.5 parts by weight of dimethylformamide Emulsifier: alkylaryl polyglycol ether To produce a suitable preparation of active compound, 1 part by weight of active compound is dissolved using the stated parts by weight of solvent and made up with water containing an emulsifier concentration of 1000 ppm until the desired concentration is attained. To produce further test concentrations, the preparation is diluted with emulsifier-containing water. Discs of Chinese cabbage leaves (Brassica pekinensis) infested by all stages of the green peach aphid (Myzus persicae) are sprayed with an active compound preparation of the desired concentration. After 6 days, the efficacy in % is determined. 100% means that all the aphids have been killed; 0% means that no aphids have been killed.

logP[a] [1] | logP[b] [1] | chromatographic logP ([1]; pH 2.7, HPLC, acidic range, pH 2.7, 0.1% aqueous formic acid and acetonitrile, read-out: log P(HCOOH)) | chromatographic logP ([1]; pH 2.7, method [a], read-out: logP[a]) | chromatographic logP ([1]; pH 7.8, HPLC, neutral range, pH 7.8, 0.001 molar aqueous ammonium hydrogencarbonate and acetonitrile, read-out: log P(neutral)) | chromatographic logP ([1]; pH 7.8, method [b], read-out: logP[b]) | SMILES | efficacy (laying of fertile eggs) (Boophilus microplus) [%] | nematicidal efficacy (formation of galls) (Meloidogyne incognita) [%] | efficacy (beetle larvae killed) (Phaedon cochleariae) [%] | efficacy (spider mites killed) (Tetranychus urticae [2]) [%] | pest or weed control at 500 g/ha (Tetranychus urticae [2]; Tetranychus urticae, foliar, 144 h, read-out: efficacy (spider mites killed)) [%] | efficacy (spider mites killed) (Tetranychus urticae [3]) [%] | efficacy (aphids killed) (Myzus persicae) [%]
3.31 | 3.25 | – | – | – | – | Cc1cc(F)c(N2C(=O)CN(C(=O)Nc3cccc(Cl)c3)C2=O)cc1[S+]([O-])CC(F)(F)F (centres unmarked) [compound 48] | 100 | 90 | 83 | 100 | – | – | –
3.51 | 3.40 | – | – | – | – | Cc1cc(Cl)c(N2C(=O)CN(C(=O)NCC(F)(F)F)C2=O)cc1SCC(F)(F)F [compound 53] | – | – | 83 | 100 | – | – | –
3.5 | 3.53 | – | – | – | – | O=C(NCC(F)(F)F)N1CC(=O)N(c2cc(SCC(F)(F)F)c(Cl)cc2Cl)C1=O [compound 106] | – | – | 83 | 100 | – | – | –
3.64 | 3.58 | – | – | – | – | CCC(C)NC(=O)N1CC(=O)N(c2cc(SCC(F)(F)F)c(C)cc2F)C1=O (centres unmarked) [compound 44] | – | – | 100 | 100 | – | – | –
3.55 | 3.56 | – | – | – | – | Cc1cc(F)c(N2C(=O)C(C)N(C(=O)NCC(F)(F)F)C2=O)cc1SCC(F)(F)F (racemic) [compound 79] | 100 | – | 100 | 100 | – | – | –
4.32 | 4.24 | – | – | – | – | Cc1cc(F)c(N2C(=O)CN(C(=O)Nc3cccc(CC(F)(F)F)c3)C2=O)cc1SCC(F)(F)F [compound 37] | – | – | 83 | 100 | – | – | –
4.09 | 3.96 | – | – | – | – | CCC(C)(C)NC(=O)N1CC(=O)N(c2cc(SCC(F)(F)F)c(C)cc2F)C1=O [compound 101] | – | 90 | 83 | 100 | – | – | –
3.45 | 3.41 | – | – | – | – | Cc1cc(F)c(N2C(=O)CN(C(=O)Nc3cccc(CC(F)(F)F)c3)C2=O)cc1[S+]([O-])CC(F)(F)F (centres unmarked) [compound 43] | 100 | 100 | 83 | 100 | – | – | –
3.85 | 3.75 | – | – | – | – | Cc1cc(F)c(N2C(=O)CN(C(=O)Nc3ccc(F)cc3)C2=O)cc1SCC(F)(F)F [compound 39] | – | – | 100 | 100 | – | – | –
– | – | 3.28 | 3.28 | 3.21 | 3.21 | Cc1cc(F)c(N2C(=O)CN(C(=O)NCC(F)(F)F)C2=O)cc1SCC(F)(F)F [Ex. No. 30, 3-[2-Fluoro-4-methyl-5-(2,2,2-trifluoroethylsulphanyl)phenyl]-2,4-dioxo-N-(2,2,2-trifluoroethyl)imidazolidine-1-carboxamide] | – | – | 83 | – | 90 | – | –
3.46 | 3.33 | – | – | – | – | Cc1cc(C)c(N2C(=O)CN(C(=O)NCC(F)(F)F)C2=O)cc1SCC(F)(F)F [compound 38] | – | – | 100 | 100 | – | – | –
2.46 | 2.50 | – | – | – | – | Cc1cc(C)c([S+]([O-])CC(F)(F)F)cc1N1C(=O)CN(C(=O)Nc2ccccn2)C1=O (racemic) [compound 118] | – | – | 100 | – | – | – | –
3.55 | 3.50 | – | – | – | – | Cc1cc(Cl)c(N2C(=O)CN(C(=O)Nc3cccc(Cl)c3)C2=O)cc1[S+]([O-])CC(F)(F)F (racemic) [compound 72] | 100 | 90 | 100 | 100 | – | – | –
2.4 | 2.43 | – | – | – | – | Cc1cc(F)c(N2C(=O)CN(C(=O)NCC(F)(F)F)C2=O)cc1[S+]([O-])CC(F)(F)F (single isomer, unassigned) [Ex. No. 136] | – | – | – | – | – | 100 | –
3.84 | 3.71 | – | – | – | – | Cc1cc(F)c(N2C(=O)CN(C(=O)NC(C)(C)C)C2=O)cc1SCC(F)(F)F [compound 54] | 100 | 100 | 100 | 100 | – | – | –
3.02 | 2.97 | – | – | – | – | Cc1cc(F)c(N2C(=O)CN(C(=O)Nc3cccc(F)c3)C2=O)cc1[S+]([O-])CC(F)(F)F (centres unmarked) [compound 46] | 100 | – | – | 100 | – | – | 90
3.68 | 3.64 | – | – | – | – | Cc1cc(Cl)c(N2C(=O)CN(C(=O)Nc3cccc(CC(F)(F)F)c3)C2=O)cc1[S+]([O-])CC(F)(F)F (racemic) [compound 71] | – | 90 | 100 | 100 | – | – | –
